Experimental data reported in ChEMBL document CHEMBL5550186, “Exploring the Potential of Cyclic Peptidyl Antitumor Agents Derived from Natural Macrocyclic Peptide Phakellistatin 13” (J Med Chem, 2024).
Active and inactive are the calls of the source. No cut-off for these calls is given here.

Assays:
HepG2 [1] = test: Antiproliferative activity against human HepG2 cells incubated for 48 hrs by MTT assay; type: functional, cell-based; settings: HepG2, 48 h
HepG2 [2] = test: Induction of morphological changes in human HepG2 cells assessed as appearance of round morphology at 40 uM measured after 12 to 24 hrs by fluorescence inverted microscopic analysis; type: functional, cell-based; settings: time 12-24 hrs
HepG2 [3] = test: Induction of morphological changes in human HepG2 cells assessed as decrease in cell adhesion at 40 uM measured after 12 to 24 hrs by fluorescence inverted microscopic analysis; type: functional, cell-based; settings: time 12-24 hrs
HepG2 [4] = test: Induction of apoptosis in human HepG2 cells assessed as viable cells at 5 uM incubated for 48 hrs by annexin V-FITC/PI staining based flow cytometry analysis (reference value: 99.3%); type: functional; settings: read-out: Activity
HepG2 [5] = test: Induction of apoptosis in human HepG2 cells assessed as late apoptotic cells at 20 uM incubated for 48 hrs by annexin V-FITC/PI staining based flow cytometry analysis (reference value: 0.16%); type: functional
HepG2 [6] = test: Induction of apoptosis in human HepG2 cells assessed as necrotic cells at 5 uM incubated for 48 hrs by annexin V-FITC/PI staining based flow cytometry analysis (reference value: 0%); type: functional
HepG2 [7] = test: Induction of cell cycle arrest in human HepG2 cells assessed as accumulation of cells at <2N phase at 10 uM incubated for 24 hrs by PI staining based flow cytometry analysis (reference value: 0.027%); type: functional
HepG2 [8] = test: Induction of cell cycle arrest in human HepG2 cells assessed as accumulation of cells at <2N phase at 5 uM incubated for 48 hrs by PI staining based flow cytometry analysis (reference value: 0.027%); type: functional
HepG2 [9] = test: Induction of cell cycle arrest in human HepG2 cells assessed as accumulation of cells at <2N phase at 10 uM incubated for 48 hrs by PI staining based flow cytometry analysis (reference value: 0.027%); type: functional
HepG2 [10] = test: Induction of cell cycle arrest in human HepG2 cells assessed as accumulation of cells at <2N phase at 20 uM incubated for 48 hrs by PI staining based flow cytometry analysis (reference value: 0.027%); type: functional
HepG2 [11] = test: Induction of cell cycle arrest in human HepG2 cells assessed as accumulation of cells at 2N phase at 5 uM incubated for 48 hrs by PI staining based flow cytometry analysis (reference value: 26.0%); type: functional
HepG2 [12] = test: Induction of cell cycle arrest in human HepG2 cells assessed as accumulation of cells at 2N phase at 10 uM incubated for 48 hrs by PI staining based flow cytometry analysis (reference value: 26.0%); type: functional
HepG2 [13] = test: Induction of cell cycle arrest in human HepG2 cells assessed as assessed as accumulation of cells at S phase at 10 uM incubated for 12 hrs by PI staining based flow cytometry analysis (reference value: 39.6%); type: functional
HepG2 [14] = test: Induction of cell cycle arrest in human HepG2 cells assessed as accumulation of cells at S phase at 10 uM incubated for 24 hrs by PI staining based flow cytometry analysis (reference value: 39.6%); type: functional
HepG2 [15] = test: Induction of cell cycle arrest in human HepG2 cells assessed as accumulation of cells at S phase at 5 uM incubated for 48 hrs by PI staining based flow cytometry analysis (reference value: 39.6%); type: functional
HepG2 [16] = test: Induction of cell cycle arrest in human HepG2 cells assessed as assessed as accumulation of cells at G2/M phase at 10 uM incubated for 12 hrs by PI staining based flow cytometry analysis (reference value: 6.38%); type: functional
HepG2 [17] = test: Induction of cell cycle arrest in human HepG2 cells assessed as assessed as accumulation of cells at >G2/M phase at 10 uM incubated for 12 hrs by PI staining based flow cytometry analysis (reference value: 28.0%); type: functional
HepG2 [18] = test: Induction of cell cycle arrest in human HepG2 cells assessed as accumulation of cells at >G2/M phase at 10 uM incubated for 24 hrs by PI staining based flow cytometry analysis (reference value: 28.0%); type: functional
HepG2 [19] = test: Induction of cell cycle arrest in human HepG2 cells assessed as accumulation of cells at >G2/M phase at 10 uM incubated for 48 hrs by PI staining based flow cytometry analysis (reference value: 28.0%); type: functional
HepG2 [20] = test: Induction of cell cycle arrest in human HepG2 cells incubated for 48 hrs by PI staining based flow cytometry analysis; type: functional; settings: dose 5-20 µM
HepG2 [21] = test: Upregulation of p53 level in human HepG2 cells at 5 to 20 uM measured after 48 hrs by Western blot analysis; type: functional, cell-based; settings: dose 5-20 µM
HepG2 [22] = test: Downregulation of MDM2 level in human HepG2 cells at 5 to 20 uM measured after 48 hrs by Western blot analysis; type: functional, cell-based; settings: dose 5-20 µM
HepG2 [23] = test: Upregulation of cytochrome c level in human HepG2 cells at 5 to 20 uM measured after 48 hrs by Western blot analysis; type: functional, cell-based; settings: dose 5-20 µM
Cell membrane [24] = test: Induction of mitochondrial membrane potential loss in human HepG2 cells assessed as decrease in fluorescence at 10 uM measured after 48 hrs by Rhodamine 123 staining based flow cytometry (reference value: 66.8%); type: cell membranes; design: scale not given: the % may be the effect or the level left
Cell membrane [25] = test: Induction of mitochondrial membrane potential loss in human HepG2 cells assessed as decrease in fluorescence at 5 uM measured after 48 hrs by Rhodamine 123 staining based flow cytometry (reference value: 66.8%); type: cell membranes; design: scale not given: the % may be the effect or the level left
[26] = molecular target: Voltage-gated inwardly rectifying potassium channel KCNH2 (Homo sapiens, UniProt Q12809); test: Inhibition of human ERG; type: toxicity
Sequence of Voltage-gated inwardly rectifying potassium channel KCNH2 (Q12809 whole entry): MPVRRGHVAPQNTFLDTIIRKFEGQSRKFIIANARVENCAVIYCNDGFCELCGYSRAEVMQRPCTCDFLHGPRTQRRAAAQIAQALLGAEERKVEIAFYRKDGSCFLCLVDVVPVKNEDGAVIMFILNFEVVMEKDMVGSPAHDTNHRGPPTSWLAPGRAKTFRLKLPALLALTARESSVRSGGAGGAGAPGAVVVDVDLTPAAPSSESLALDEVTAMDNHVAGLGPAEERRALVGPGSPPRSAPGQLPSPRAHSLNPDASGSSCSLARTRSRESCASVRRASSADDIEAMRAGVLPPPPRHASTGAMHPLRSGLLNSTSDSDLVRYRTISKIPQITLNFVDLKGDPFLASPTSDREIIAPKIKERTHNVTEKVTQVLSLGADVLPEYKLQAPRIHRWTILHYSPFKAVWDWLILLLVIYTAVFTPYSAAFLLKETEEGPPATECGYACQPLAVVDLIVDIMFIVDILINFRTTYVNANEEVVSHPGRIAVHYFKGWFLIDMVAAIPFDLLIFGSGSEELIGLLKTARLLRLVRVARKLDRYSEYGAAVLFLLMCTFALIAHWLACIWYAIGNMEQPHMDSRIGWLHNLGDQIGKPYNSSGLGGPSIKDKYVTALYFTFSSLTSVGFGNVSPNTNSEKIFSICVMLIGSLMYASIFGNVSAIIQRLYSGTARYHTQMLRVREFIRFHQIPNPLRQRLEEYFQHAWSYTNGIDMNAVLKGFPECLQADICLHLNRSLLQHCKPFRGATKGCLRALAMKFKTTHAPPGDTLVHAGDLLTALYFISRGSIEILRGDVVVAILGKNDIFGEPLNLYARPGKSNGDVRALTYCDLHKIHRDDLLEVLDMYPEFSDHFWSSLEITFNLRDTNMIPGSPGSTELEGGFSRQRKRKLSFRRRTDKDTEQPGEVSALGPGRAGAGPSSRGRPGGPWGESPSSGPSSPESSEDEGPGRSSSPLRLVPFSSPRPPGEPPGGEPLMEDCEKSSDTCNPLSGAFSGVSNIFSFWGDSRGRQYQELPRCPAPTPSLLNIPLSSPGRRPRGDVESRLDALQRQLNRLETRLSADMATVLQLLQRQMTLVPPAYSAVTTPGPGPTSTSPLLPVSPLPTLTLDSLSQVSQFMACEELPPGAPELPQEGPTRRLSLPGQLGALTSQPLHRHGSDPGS

[27] = Mutagenicity in Salmonella typhimurium by Ames test; type: toxicity; settings: salmonella enterica subsp. enterica serovar typhimurium
4T1 = test: Antitumor activity in mouse 4T1 cells xenografted in Balb/c mouse assessed as inhibition of tumor growth at 6 mg/kg, iv measured every two days for 14 days; type: functional, organism-based; settings: time 14.0 day
[28] = Toxicity in Balb/c mouse assessed as effect on kidney at 6 mg/kg, iv measured after 14 days by H and E staining based analysis; type: organism-based; settings: in vivo, 336 h, time 14 day
[29] = Toxicity in Balb/c mouse assessed as effect on tumor at 6 mg/kg, iv measured after 14 days by H and E staining based analysis; type: organism-based; settings: in vivo, 336 h, time 14 day
[30] = Upregulation of SESN2 expression level in human HepG2 cells assessed as fold change by KEGG enrichment analysis; type: functional
[31] = Upregulation of SESN3 expression level in human HepG2 cells assessed as fold change by KEGG enrichment analysis; type: functional
[32] = Upregulation of […] expression level in human HepG2 cells assessed as fold change by KEGG enrichment analysis; type: functional
[33] = Upregulation of DDIT3 expression level in human HepG2 cells assessed as fold change by KEGG enrichment analysis; type: functional
[34] = Upregulation of GADD45B expression level in human HepG2 cells assessed as fold change by KEGG enrichment analysis; type: functional
[35] = Upregulation of DUSP6 expression level in human HepG2 cells assessed as fold change by KEGG enrichment analysis; type: functional
[36] = Upregulation of SYVN1 expression level in human HepG2 cells assessed as fold change by KEGG enrichment analysis; type: functional
[37] = Upregulation of CXCL2 expression level in human HepG2 cells assessed as fold change by KEGG enrichment analysis; type: functional

SMILES: CC(C)C[C@H]1NC(=O)[C@H]([C@@H](C)OCc2ccccc2)NC(=O)[C@H]2CCCN2C(=O)CN2C(=O)c3ccccc3[C@@]2(O)CN(Cc2ccccc2)C(=O)[C@H](Cc2ccccc2)NC(=O)[C@H]2CCCN2C(=O)[C@H](Cc2c[nH]c3ccccc23)NC1=O
- IC50 (HepG2 [1]): 11.6 µM
- Activity (HepG2 [2]): Active
- Activity (HepG2 [3]): Active
- viability at 5 µM (HepG2 [4]): 80.8%
- Activity (HepG2 [5]): 6.88%
- Activity (HepG2 [6]): 0%
- Activity (HepG2 [7]): 35.9%
- Activity (HepG2 [8]): 37.3%
- Activity (HepG2 [9]): 20.2%
- Activity (HepG2 [10]): 28.1%
- Activity (HepG2 [11]): 28.7%
- Activity (HepG2 [12]): 33.5%
- Activity (HepG2 [13]): 18.9%
- Activity (HepG2 [14]): 14.3%
- Activity (HepG2 [15]): 12.3%
- Activity (HepG2 [16]): 12.4%
- Activity (HepG2 [17]): 4.68%
- Activity (HepG2 [18]): 13.5%
- Activity (HepG2 [19]): 0%
- Activity (HepG2 [20]): Dose-Dependent Effect
- Activity (HepG2 [21]): Active
- Activity (HepG2 [22]): Active
- Activity (HepG2 [23]): Active
- Activity (Cell membrane [24]): 28.8%
- Activity (Cell membrane [25]): 41.6%
- inhibition (INH) [26]: Active
- Activity [27]: Non-Toxic
- Activity (4T1): Active
- Activity [28]: Non-Toxic
- Activity [29]: Non-Toxic
- fold change (FC) [30]: 2.86
- fold change (FC) [31]: 1.529
- fold change (FC) [32]: 1.218
- fold change (FC) [33]: 1.968
- fold change (FC) [34]: 1.146
- fold change (FC) [35]: 1.112
- fold change (FC) [36]: 1.048
- fold change (FC) [37]: 1.751
